Experimental data: the supplement of paper PMC10307832

Tests used:
Test in all cases: relative viability (nuclei count vs DMSO), 5 days (fraction); higher = more cells survive
[1] = compound: CC1(C)CCC(CN2CCN(c3ccc(C(=O)NS(=O)(=O)c4ccc(NCC5CCOCC5)c([N+](=O)[O-])c4)c(Oc4cnc5[nH]ccc5c4)c3)CC2)=C(c2ccc(Cl)cc2)C1 [Venetoclax] + C[C@@H](Oc1cc(-c2cnn(C3CCNCC3)c2)cnc1N)c1c(Cl)ccc(F)c1Cl [Crizotinib] (partner 1 µM)
In short: (§1)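 Medians of duplicate plates are given as relative viability. That measure is the nuclei count in treated wells divided by the count in vehicle wells. Counts were taken on 4× images of lung cancer cell lines in 1536-well plates, 5 days after pin-tool dosing the day after seeding with one drug alone or a fixed anchor-drug dose plus five library-drug doses (not always all listed) in √10 steps.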

[2] = compound: Cn1cnc2c(F)c(Nc3ccc(Br)cc3Cl)c(C(=O)NOCCO)cc21 [Selumetinib] + CC(=O)c1c(C)c2cnc(Nc3ccc(N4CCNCC4)cn3)nc2n(C2CCCC2)c1=O [Palbociclib] (partner 0.5 µM)
In short: as §1

[3] = compound: CC1(C)CCC(CN2CCN(c3ccc(C(=O)NS(=O)(=O)c4ccc(NCC5CCOCC5)c([N+](=O)[O-])c4)c(Oc4cnc5[nH]ccc5c4)c3)CC2)=C(c2ccc(Cl)cc2)C1 [Venetoclax] + C[C@]1(O)C[C@@H](c2nc(-c3ccc4ccc(-c5ccccc5)nc4c3)c3c(N)nccn32)C1 [Linsitinib] (partner 1 µM)
In short: as §1

[4] = compound: Cn1cnc2c(F)c(Nc3ccc(Br)cc3Cl)c(C(=O)NOCCO)cc21 [Selumetinib] + Nc1ncn([C@H]2C[C@H](O)[C@@H](CO)O2)c(=O)n1 [Decitabine] (partner 2 µM)
In short: as §1

Row | Cell Line | relative viability ([1]; first compound 0.01 µM) | relative viability ([1]; first compound 0.03162 µM) | relative viability ([1]; first compound 0.1 µM) | relative viability ([1]; first compound 0.3162 µM) | relative viability ([1]; first compound 1 µM) | relative viability ([2]; first compound 0.02 µM) | relative viability ([2]; first compound 0.06325 µM) | relative viability ([2]; first compound 0.2 µM) | relative viability ([2]; first compound 0.6325 µM) | relative viability ([3]; first compound 0.01 µM) | relative viability ([3]; first compound 0.03162 µM) | relative viability ([3]; first compound 0.1 µM) | relative viability ([3]; first compound 0.3162 µM) | relative viability ([3]; first compound 1 µM) | relative viability ([4]; first compound 0.02 µM) | relative viability ([4]; first compound 0.06325 µM) | relative viability ([4]; first compound 0.2 µM) | relative viability ([4]; first compound 0.6325 µM)
1 | 201T | 1.01 | 0.995 | 0.989 | 0.948 | 1.05 | 0.357 | 0.352 | 0.314 | 0.329 | 0.986 | 1.01 | 1.03 | 1.03 | 1.01 | 0.795 | 0.817 | 0.786 | 0.824
2 | A549 | 0.707 | 0.668 | 0.886 | 0.649 | 0.61 | – | – | – | – | 0.586 | 0.597 | 0.524 | 0.568 | 0.558 | 0.305 | 0.227 | 0.198 | 0.267
3 | A-427 | 0.584 | 1.09 | 0.873 | 0.924 | 1 | 0.503 | 0.496 | 0.51 | 0.538 | 1.06 | 1.18 | 1.1 | 1.16 | 1.19 | 0.537 | 0.575 | 0.53 | 0.55
4 | ABC-1 | 0.921 | 0.99 | 1.06 | 1.12 | 1.04 | 0.642 | 0.672 | 0.555 | 0.5 | 0.7 | 0.878 | 0.697 | 0.81 | 0.813 | 1.01 | 1.08 | 1.08 | 1.02
5 | BEN | 0.825 | 0.81 | 0.727 | 0.851 | 0.817 | 0.466 | 0.53 | 0.462 | 0.509 | 0.91 | 0.919 | 0.769 | 0.842 | 0.997 | 0.704 | 0.733 | 0.714 | 0.731
6 | CAL-12T | 0.65 | 0.567 | 0.595 | 0.527 | 0.555 | 0.385 | 0.26 | 0.222 | 0.191 | 0.728 | 0.931 | 0.685 | 0.776 | 0.691 | – | – | – | –
7 | COR-L23 | 0.631 | 0.696 | 0.601 | 0.778 | 0.543 | 0.311 | 0.289 | 0.301 | 0.241 | 0.864 | 0.953 | 0.879 | 0.897 | 0.815 | 0.438 | 0.418 | 0.451 | 0.444
8 | COR-L 105 | 0.717 | 0.638 | 0.669 | 0.738 | 0.698 | 0.449 | 0.404 | 0.383 | 0.392 | 0.934 | 0.943 | 0.834 | 0.81 | 0.871 | 0.637 | 0.507 | 0.452 | 0.45
9 | Calu-6 | 0.79 | 0.798 | 0.794 | 0.776 | 0.72 | – | – | – | – | 0.897 | 0.943 | 1.01 | 0.901 | 0.896 | – | – | – | –
10 | ChaGo-K-1 | 1.1 | 1.27 | – | 1.16 | 1.08 | 0.94 | 0.966 | 0.895 | 0.848 | – | – | – | – | – | 0.544 | 0.539 | 0.48 | 0.532
11 | EBC-1 | 0.213 | 0.18 | 0.207 | 0.211 | 0.146 | – | – | – | – | 0.902 | 0.963 | 0.912 | 0.837 | 0.786 | – | – | – | –
12 | EKVX | 0.834 | 0.985 | 0.897 | 0.895 | 0.882 | 0.285 | 0.278 | 0.227 | 0.186 | 0.909 | 0.976 | 0.88 | 1.03 | 0.844 | 0.339 | 0.29 | 0.37 | 0.339
13 | EMC-BAC-2 | 0.687 | 0.774 | 0.779 | 0.775 | 0.71 | 0.554 | 0.53 | 0.55 | 0.52 | 0.789 | 0.834 | 0.816 | 0.814 | 0.787 | 0.991 | 0.976 | 0.997 | 0.942
14 | EPLC-272H | – | 0.682 | 0.872 | 1.11 | 0.897 | 0.271 | 0.256 | 0.287 | 0.232 | – | 1.31 | 1.06 | 1.45 | 1.07 | 0.364 | 0.339 | 0.346 | 0.294
15 | H3255 | 0.815 | 0.824 | 0.837 | 0.773 | 1.05 | 0.318 | 0.353 | 0.339 | 0.339 | 1 | 0.953 | 0.809 | 0.873 | 0.915 | 0.647 | 0.649 | 0.557 | 0.614
16 | HARA | 0.946 | 1.07 | 0.603 | 1.04 | 1.08 | 0.359 | 0.244 | 0.236 | 0.165 | 0.833 | 0.93 | 0.911 | 0.927 | 0.928 | 0.691 | 0.502 | 0.602 | 0.483
17 | HCC-15 | 0.814 | 0.839 | 0.709 | 0.742 | 0.617 | 0.564 | 0.537 | 0.355 | 0.253 | 0.763 | 0.826 | 0.742 | 0.794 | 0.771 | 0.556 | 0.449 | 0.438 | 0.392
18 | HCC-44 | 0.748 | 0.852 | 0.83 | 0.778 | 0.762 | 1 | 0.971 | 1.01 | 1.09 | 0.613 | 0.728 | 0.67 | 0.664 | 0.609 | 1.03 | 0.982 | 0.962 | 0.942
19 | HCC-78 | 0.315 | 0.338 | 0.307 | 0.393 | 0.362 | 0.486 | 0.488 | 0.498 | 0.423 | 0.494 | 0.563 | 0.433 | 0.571 | 0.596 | 0.819 | 0.759 | 0.779 | 0.685
